According to PubChem BioAssay (NCI):
Several values for one entry are separate records, joined by “and”; a condition that tells them apart may be missing. Identical values can stand only once.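 A five-concentration, 48-hour dose response in 96-well plates underlies each endpoint, interpolated linearly between surrounding concentrations. Abbreviation: GI50, concentration required for 50% inhibition of growth. Definition used: TGI = concentration required for complete inhibition of growth.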

What was measured:
Test in all cases: NCI-60 cell line screen, 48 h
BT-549 breast = tested on: BT-549 breast
OVCAR-4 ovarian = tested on: OVCAR-4 ovarian
M14 melanoma = tested on: M14 melanoma
MDA-MB-435 = tested on: MDA-MB-435
UO-31 renal = tested on: UO-31 renal
SF-295 CNS = tested on: SF-295 CNS
K-562 leukemia = tested on: K-562 leukemia
U251 CNS = tested on: U251 CNS
OVCAR-5 ovarian = tested on: OVCAR-5 ovarian
SK-MEL-2 melanoma = tested on: SK-MEL-2 melanoma

SMILES | TGI (BT-549 breast) | TGI (OVCAR-4 ovarian) [µM] | TGI (M14 melanoma) [µM] | TGI (MDA-MB-435) | TGI (UO-31 renal) [µM] | TGI (SF-295 CNS) [µM] | TGI (K-562 leukemia) [µM] | TGI (U251 CNS) [µM] | TGI (OVCAR-5 ovarian) [µM] | TGI (SK-MEL-2 melanoma) [µM] | GI50 (BT-549 breast) [µM] | GI50 (M14 melanoma) [µM] | GI50 (MDA-MB-435) [µM] | GI50 (UO-31 renal) [µM] | GI50 (SF-295 CNS) [µM] | GI50 (K-562 leukemia) [µM] | GI50 (U251 CNS) [µM] | GI50 (SK-MEL-2 melanoma) [µM]
COC(=O)c1cnc(Cl)cn1 | > 100 µM | 45.5 | > 100 | > 100 µM | 36.9 | > 100 | > 100 | > 100 | > 100 | > 100 |  |  |  |  |  |  |  | 
O=[N+]([O-])c1ccc(C=NCC2CCCN3CCCCC23)cc1 (stereo not drawn) | > 100 µM | > 100 | > 100 | > 100 µM | > 100 | > 100 | > 100 | > 100 | > 100 | > 100 |  |  |  |  |  |  |  | 
COc1ccc(N2C=Nn3c(nc4sc5c(c4c3=O)CCCC5)C2)cc1 | > 100 µM | > 100 | > 100 | > 100 µM | > 100 | 68 | > 100 | > 100 | > 100 | 93.1 |  |  |  |  |  |  |  | 
Cc1noc(NC2=CC(=O)C(=O)c3ccccc32)c1C | 50.2 µM | > 100 | > 100 | 0.397 µM | > 100 | > 100 | 0.872 | > 100 | > 100 | 5.8 |  |  |  |  |  |  |  | 
COc1c(O)cc2c(c1O)C(=O)/C(=C/c1ccc(O)cc1)CO2 | > 100 µM | 60.7 | 61.1 | > 100 µM | 65.1 | > 100 | 95.2 | > 100 | 68.6 | > 100 |  |  |  |  |  |  |  | 
COc1ccc(C2C3COc4ccccc4C3=NN2c2ccccc2)cc1 (stereo not drawn) | > 100 µM | > 100 | > 100 | > 100 µM | > 100 | > 100 | > 100 | > 100 | > 100 | > 100 |  |  |  |  |  |  |  | 
CC(=O)OCC1OC(Oc2cc(C)c(O)cc2C/C=C(\C)CC/C=C(\C)CC(=O)CC(C)C)C(O)C(OC(C)=O)C1OC(C)=O (stereo not drawn) | 31.2 µM | > 50 | 25.7 | 48.4 µM | 32 | > 50 | 23.2 | 41.9 | > 50 | 26.6 |  |  |  |  |  |  |  | 
COc1ccc(OC)c(NS(=O)(=O)c2ccc3nc(C)n(NS(=O)(=O)c4cc(OC)ccc4OC)c(=O)c3c2)c1 | > 100 µM | > 100 | > 100 | > 100 µM | > 100 | > 100 | > 100 | > 100 | > 100 | > 100 |  |  |  |  |  |  |  | 
CC(C)=CCC/C(C)=C/CC/C(C)=C/CC/C(=C/CC/C(C)=C\CC/C(C)=C/CC/C(C)=C/CC/C(C)=C/Cc1cc(O)ccc1O)CO | 12.5 µM | 19.7 | 4.88 | > 31.8 µM | 21.4 | 5.85 | > 100 | > 28.5 | > 91.5 | 11.5 |  |  |  |  |  |  |  | 
CCCCCCCCCCC1OC([C@@H](O)CC[C@H](O)C2CC[C@@H](CCCCCCCC(O)CC3=CC(C)OC3=O)O2)CCC1O (stereo partly drawn) | 7.53 µM and > 25 µM | > 25 | > 17.5 | 5.58 µM and > 20.2 µM | 10.4 | > 25 | > 25 | > 25 | > 25 | > 18.1 | 2.34 | 4.81 | 1.59 | 2.66 | 4.31 | 2.48 | 4 | 6.55
CN(C)CCCn1nc(N)c2nc3cc(Cl)ccc3nc21 | > 100 µM | > 100 | 47.4 | > 100 µM | > 92.6 | > 100 | > 100 | > 100 | > 100 | > 75.7 |  |  |  |  |  |  |  | 
CN(/N=C/c1ccnc2ccccc12)c1ccc(Cl)cc1[N+](=O)[O-] | > 100 µM | 69.1 | > 100 | > 100 µM | > 100 | > 100 | > 100 | > 100 | > 100 | > 100 |  |  |  |  |  |  |  | 
CCOC(=O)C(Cc1cccn1C(=O)OC(C)(C)C)[N+](=O)[O-] (stereo not drawn) | > 100 µM | 89 | 40.9 | 77.1 µM | 39.3 | 99.4 | 79.6 | 50.9 | 63.2 | 53.9 |  |  |  |  |  |  |  | 
Cc1cn([C@@H]2O[C@H](CO[Si](C)(C)C(C)(C)C)[C@]3(O[C@H]3C(=O)NN)[C@H]2O[Si](C)(C)C(C)(C)C)c(=O)[nH]c1=O | 13.9 µM | 22.6 | 20.4 | 23.1 µM | 27.7 | 22.2 | 7.17 | 14.5 | 21.3 | 17.4 |  |  |  |  |  |  |  | 
O=c1[nH]nc(Cc2ccccc2)n1CCO | > 100 µM | > 100 | > 100 | > 100 µM | > 100 | > 100 | > 100 | > 100 | > 100 | > 100 |  |  |  |  |  |  |  | 
C[N+]1(CCCl)CC[N+](C)(CCCl)CC1 (stereo not drawn) | > 100 µM | > 100 | > 100 | > 100 µM | > 100 | > 100 | > 100 | > 100 | > 100 | > 100 |  |  |  |  |  |  |  | 
C=C1C(=O)O[C@H]2[C@@H](O)[C@H](C)CCC[C@]3(C)O[C@H]3CC[C@@]3(C)O[C@@H]3C[C@@H]12 | 4.5 µM | 9.85 | 12.4 | 10 µM | 12.4 | 15.6 | 3.25 | 15.7 | 12.5 | 16.6 |  |  |  |  |  |  |  | 
C=C1C(=O)O[C@@H]2C[C@]3(C)CC[C@]4(C)[C@H](CC[C@@H]5[C@@]6(C)CCC(=O)C(C)(C)[C@@H]6CC[C@]54C)[C@H]3[C@H]12 | 37.4 µM | 40.1 | 31.3 | 25.4 µM | 28.3 | 33.6 | 16.7 | 38.4 | 32.8 | 47.7 |  |  |  |  |  |  |  | 
